Counter-ions that a name gives are not always drawn. Values belong to the compound of their own block, whether it stands above or below them.
Assays:
Format in all cases: physicochemical
[1] = Salt form optimization study: hygroscopicity / deliquescence of salts
Source text: In another salt from optimization study for the dibasic drug molecule (+/−)-erythro-2-amino-3-hydroxy-3-pyridin-4-yl-1-pyrrolidin-1-yl-propan-1-one, the dihydrochloride was the first salt prepared and characterized. […] The following counterions were used: sulfuric acid, 1-hydroxy-2-naphthoic acid, methanesulfonic acid, naphthalene-2-sulfonic acid, benzenesulfonic acid, (L-) glutamic acid, malonic acid, citric acid, (−)-L-malic acid, lactic acid, ascorbic acid, and acetic acid. Of these the pursuance of mono-acetate, the naphthalene-2-sulfonate and the 1-hydroxy-2-naphthoate salts were recommended. […] The latter salt also represented a large counterion compared to the base and, especially at high doses, this was perceived as a definite disadvantage.

[2] = Dynamic Vapor Sorption (DVS)
[3] = TG-FTIR thermal decomposition
[4] = Differential Scanning Calorimetry (DSC) degradation
[5] = sample of FIG. 11 (crystalline salt)

relative humidity at which the salt deliquesced [1]: 51 % RH
Compound: N[C@@H](C(=O)N1CCCC1)[C@@H](O)c1ccncc1 (racemic) [acetate salt, (+/−)-erythro-2-amino-3-hydroxy-3-pyridin-4-yl-1-pyrrolidin-1-yl-propan-1-one]

hygroscopicity [1]: hygroscopic
Compound: N[C@@H](C(=O)N1CCCC1)[C@@H](O)c1ccncc1 (racemic) [dihydrochloride, (+/−)-erythro-2-amino-3-hydroxy-3-pyridin-4-yl-1-pyrrolidin-1-yl-propan-1-one]

hygroscopicity ([2]; amorphous sample, FIG. 17): very hygroscopic
deliquescence ([2]; amorphous sample, FIG. 17, visually confirmed): deliquescent
hygroscopicity [2, 5]: very hygroscopic
relative humidity above which water uptake occurs [2, 5]: above 80 % r.h.
deliquescence ([2]; sample of FIG. 11 (crystalline salt), visually confirmed): deliquescent
degradation temperature ([3]; amorphous sample, FIG. 15): above 160 °C
decomposition temperature ([3]; sample of FIG. 9 (crystalline salt)): above 160 °C
overlapping melting and degradation temperature ([4]; DSC first scan, sample of FIG. 10 (crystalline salt)): ~160 °C
degradation temperature ([4]; DSC, amorphous sample, FIG. 16): above 118 °C
Compound: N[C@@H](C(=O)N1CCCC1)[C@@H](O)c1ccncc1.O=C(O)C(O)C(O)C(=O)O [(−)-(2R,3S)-2-amino-3-hydroxy-3-pyridin-4-yl-1-pyrrolidin-1-yl-propan-1-one (L)-(+) tartrate]
